Test results published in ChEMBL document CHEMBL1127841, “Adenosine deaminase inhibitors: synthesis and structure-activity relationships of 2-hydroxy-3-nonyl derivatives of azoles” (J Med Chem, 1994).

The molecules below were run against T1, Adenosine deaminase (Bos taurus, UniProt P56658) (assay: In vitro inhibition of adenosine deaminase isolated from calf intestine.).
T1 sequence (P56658 whole entry): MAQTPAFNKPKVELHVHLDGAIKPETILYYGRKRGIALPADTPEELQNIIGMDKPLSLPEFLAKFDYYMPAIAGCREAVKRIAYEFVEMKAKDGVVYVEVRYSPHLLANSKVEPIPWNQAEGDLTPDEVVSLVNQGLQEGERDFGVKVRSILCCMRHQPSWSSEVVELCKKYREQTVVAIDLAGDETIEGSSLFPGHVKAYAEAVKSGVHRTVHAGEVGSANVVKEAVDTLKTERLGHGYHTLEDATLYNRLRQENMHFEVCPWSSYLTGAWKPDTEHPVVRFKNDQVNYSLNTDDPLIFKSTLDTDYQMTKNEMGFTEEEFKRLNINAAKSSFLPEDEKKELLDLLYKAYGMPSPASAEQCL
With CCCCCCC(C(C)O)n1cnc2c(N)nccc21 (stereo not given) the Ki was 0.16 µM. Work on CCCCCCC(C(C)O)n1cnc2c(N)ccnc21 (stereo not given) yielded a Ki of 0.01 µM. With CCCCCCC(C(C)O)n1nccn1 (stereo not given) the Ki was over 400 µM. CCCCCCC(C(C)O)n1cnnc1 (stereo not given) showed a Ki of 26 µM. CCCCCCC(C(C)O)n1cccn1 (stereo not given) showed a Ki of over 1000 µM. In the case of CCCCCCC(C(C)O)n1ccnc1 (stereo in doubt; 6e), the Ki is reported as 0.7 µM. For CCCCCCC(C(C)O)n1ccnc1 (stereo in doubt; 6t), the Ki was 1.8 µM. In the case of CCCCCCC(C(C)O)n1ccnn1 (stereo in doubt; 13e), the Ki is reported as 24 µM. CCCCCCC(C(C)O)n1ccnn1 (stereo in doubt; 13t) gave a Ki of 100 µM. In the case of CCCCCCC(C(C)O)n1cncn1 (stereo in doubt; 18e), the Ki is reported as 0.3 µM. Molecule CCCCCCC(C(C)O)n1cncn1 (stereo in doubt; 18t) has a Ki of 1 µM. CCCCCCC(C(C)O)n1cnnn1 (stereo in doubt; 23e) showed a Ki of 0.6 µM. With CCCCCCC(C(C)O)n1cnnn1 (stereo in doubt; 23t) the Ki was 15 µM. CCCCCCC(C(C)O)n1ncnn1 (stereo in doubt; 25e) gave a Ki of 9.6 µM. CCCCCCC(C(C)O)n1ncnn1 (stereo in doubt; 25t) showed a Ki of over 1000 µM.
